Reference: patent publication US8409595B2, “Method for decreasing sebum production” (Medicis Pharmaceutical Corporation, priority 2003, dated 2013)

Experiments:
[1] = tested on: sebaceous glands of Syrian hamster ears; assay: Syrian hamster ear model of sebum secretion, HPLC of cholesterol ester and wax ester; format: in vivo; settings: topical 1 w/v %, 4 weeks; for % Reduction in CE, change vs. relevant vehicle control: cholesterol ester; for % Reduction in CE, change vs. relevant vehicle control / % Reduction in WE, change vs. relevant vehicle control: twice daily, five days a week, right ear, negative = increase; for Sum CE + WE, change vs. relevant vehicle control: summation of % reduction in CE and in WE; for % Reduction in WE, change vs. relevant vehicle control: wax ester; for effect on CE and WE (sebum) secretion, in words: compared to the control
Experimental: Luderschmidt et al describes an animal model for testing whether compounds are capable of modulating sebum secretion. Arch. Derm. Res. 258, 185-191 (1977). This model uses Syrian hamsters, whose ears contain sebaceous glands. Compounds can be administered to these animals to determine if a test agent is capable of modulating sebum production
Testing for sebum inhibition was carried out in the following manner. Male Syrian hamsters aged 9 to 10 weeks were introduced into the laboratory environment and acclimated for 2 weeks prior to use in the study. Each group consisted of 5 animals and were run in parallel with vehicle and positive controls. Prior to administration, 10 mg of each compound was dissolved in 1 mL of Universal solvent (ethanol/propylene glycol (70/30% v/v) to achieve a final concentration of 1 w/v %.
Animals were dosed topically twice daily, five days a week, for 4 weeks. Each dose consisted of 25 micro liters of vehicle control or drug. The dose was applied to the ventral surfaces of both the right and left ears. All animals were sacrificed approximately 18-24 hours after the final dose. The right ears were collected from each animal and used for sebum analysis.
The ears were prepped for HPLC analysis in the following manner. One 8 mm distal biopsy punch was taken, just above the anatomical “V” mark in the ear to normalize the sample area. The punch was pulled apart. The ventral biopsy surface (the area where the topical dose was directly applied to the sebaceous glands) was retained for testing and the dorsal surface of the biopsy punch was discarded.
Tissue samples were blown with N2 gas and stored at −80° C. under nitrogen until HPLC analysis. In addition to ear samples, an aliquot of each drug and vehicle (at least 250 ul) was also stored at −80° C. for inclusion in the HPLC analysis.
HPLC analysis was carried out on an extract of the tissue sample. Tissue samples were contacted with 3 ml of solvent (a 4:1 admixture of 2,2,4-trimethylpentane and isopropyl alcohol). The mixture was shaken for 15 minutes and stored overnight at room temperature, protected from light. The next morning 1 milliliter of water was added to the sample and shaken for 15 minutes. The sample was then centrifuged at approximately 1500 rpm for 15 minutes. Two ml of the organic phase (top layer) was transferred to a glass vial, dried at 37° C., under nitrogen, for approximately 1 hour, and then lyophilized for approximately 48 hours. The samples were then removed from the lyophilizer and each vial was reconstituted with 600 μl of solvent A (trimethylpentane/tetrahydrofuran (99:1). The samples were then recapped and vortexed for 5 minutes.
200 μl of each sample was then transferred to a pre-labeled 200 μl HPLC vial with 200 μL glass inserts. The HPLC vials were placed in the autosampler tray for the Agilent 1100 series HPLC unit. The Agilent 1100 HPLC system consisted of a thermostated autosampler, a quarternary pump, a column heater, and an A/D interface module. All components were controlled by Agilent ChemStation software. A Waters Spherisorb S3W 4.6×100 mm analytical column was maintained at 30° C. by the Agilent column heater unit. The HPLC autosampler was programmed to maintain the sample temperature at 20° C. throughout the run.
10 uL of each sample was injected in triplicate into the column. Two solvents were used for the solvent gradient. Solvent A was an admixture of trimethylpentane and tetrahydrofuran (99:1). Solvent B was ethylacetate. The gradient utilized is described in the table below: […]
The Sedex 75 Evaporative Light Scattering Detector (ELSD) was operated at 45° C. with a gain of 5, and N2 pressure maintained at 3.1 bar. Analog signal obtained by the instrument was sent to the Agilent A/D interface module where it was converted to a digital output. The conversion was based on a 10000 mAU/volt set point and the data rate was set at 10 Hz (0.03 min). […]

sebum secretion = settings: in vivo; cited from earlier work

Structure (SMILES) | % Reduction in CE, change vs. relevant vehicle control [1] [%] | Sum CE + WE, change vs. relevant vehicle control [1] [%] | % Reduction in WE, change vs. relevant vehicle control [1] [%] | effect on CE and WE (sebum) secretion, in words [1] | reduction of sebum secretion (sebum secretion)
CC(C)c1cccc(C(C)C)c1NC(=O)CC(=O)N(CCN(C)C)Cc1ccccc1 [Compound 4] | −1 | −19 | −18 |  | 
CC(C)c1cccc(C(C)C)c1NC(=O)Nc1nnn(CCCCCCCCCCCO)n1 [Compound 26] | 28 | 37 | 9 |  | 
CCCCCCCCCCCCn1nnc(CNC(=O)Nc2c(C(C)C)cccc2C(C)C)n1 [Compound 19] | −6 | −5 | 1 |  | 
COc1ccc(CN(C(=O)CC(=O)Nc2c(C(C)C)cccc2C(C)C)c2ccccn2)cc1 [Compound 3] | 51 | 84 | 33 | comparable results | 
CC(C)c1cccc(C(C)C)c1NC(=O)NCC1(c2ccccc2)CC1 [Compound 28] | 0 | −8 | −8 |  | 
CCCCCCCCCCCCOP(=O)(CC(=O)Nc1c(C(C)C)cccc1C(C)C)c1ccccc1 (stereo not drawn) [Compound 12] | 48 | 92 | 44 |  | 
CC(C)c1cccc(C(C)C)c1NC(=O)NCC1(c2ccco2)CCC1 [Compound 20] | 4 | 3 | −1 |  | 
CCCCCCCCCCCCn1nnc(C(C(=O)Nc2c(OC)cc(OC)cc2OC)c2ccccc2)n1 (stereo not drawn) [Compound 11] | −5 | −11 | −6 |  | 
CCCCCCCCCCCCn1nnc(C(C(=O)Nc2c(C(C)C)cccc2C(C)C)c2ccccc2)n1 (stereo not drawn) [Compound 10] | −105 | −252 | −147 |  | 
COc1ccccc1CN[C@@H](CNC(=O)Nc1c(C(C)C)cccc1C(C)C)c1ccccc1 [Compound 21] | 4 | 7 | 3 |  | 
CC(C)c1cccc(C(C)C)c1NC(=O)NCC1(c2ccc(CO)cc2)CCCC1 [Compound 16] | −1 | −1 | 0 |  | 
CCCCCCCN(CCCCCSc1nc(-c2ccccc2)c(-c2ccccc2)[nH]1)C(=O)Nc1ccc(F)cc1F [Compound 22] | 20 | 24 | 4 |  | 
CC(C)c1cccc(C(C)C)c1NC(=O)NCC1(c2ccccn2)CCCC1 [Compound 17] | −56 | −120 | −64 |  | 
CCCCCCCC1CCC(C(=O)Nc2c(C(C)C)cccc2C(C)C)C(=O)O1 (stereo not drawn) [Compound 15] | 24 | 38 | 14 |  | 
CC(C)c1cccc(C(C)C)c1NC(=O)NCC1(c2ccccc2)CCOCC1 [Compound 13] | −7 | −14 | −7 |  | 
CC(=O)OC(C(=O)N(CC(=O)Nc1c(C(C)C)cccc1C(C)C)Cc1ccccc1)c1ccccc1 (stereo not drawn) [Compound 29] | 19 | 30 | 11 |  | 

Structure (SMILES) | % Reduction in CE, change vs. relevant vehicle control [1] [%] | Sum CE + WE, change vs. relevant vehicle control [1] [%] | % Reduction in WE, change vs. relevant vehicle control [1] [%] | effect on CE and WE (sebum) secretion, in words [1] | reduction of sebum secretion (sebum secretion)
CC(C)c1cccc(C(C)C)c1NC(=O)CC(=O)CC(c1ccccc1)c1ccccc1 [Compound 9] | 7 | 9 | 2 |  | 
CC(C)c1cccc(C(C)C)c1NC(=O)NCCc1c[nH]c2ccccc12 [Compound 31] | 9 | 18 | 9 |  | 
CCOC(=O)CN(C(=O)CC(=O)Nc1c(C(C)C)cccc1C(C)C)c1ccccc1 [Compound 7] | −67 | −151 | −84 |  | 
COc1cccc2c1CCC(NC(=O)Nc1c(C(C)C)cccc1C(C)C)C2 (stereo not drawn) [Compound 30] | −10 | −44 | −34 |  | 
CC(C)c1cccc(C(C)C)c1NC(=O)NCC1(c2cccc(CN3CCOCC3)c2)CCCC1 [Compound 24] | 20 | 21 | 1 |  | 
CC(C)c1cccc(C(C)C)c1NC(=O)CC(=O)N(c1ccccc1)C(C)C [Compound 8] | −27 | −97 | −70 |  | 
CC(C)c1cccc(C(C)C)c1NC(=O)NCC(C)c1ccccc1 (stereo not drawn) [Compound 27] | −17 | −40 | −23 |  | 
CCCCCCCCCCCCn1nnc(CC(=O)Nc2c(C)nn(C)c2C)n1 [Compound 18] | −23 | −72 | −49 |  | 
COc1ccc(CN(C(=O)CC(=O)Nc2c(C(C)C)cccc2C(C)C)c2ncccn2)cc1 [Compound 5] | 32 | 28 | −4 |  | 
CC(C)c1cccc(C(C)C)c1NC(=O)CC(=O)N(CCC#N)Cc1ccccc1 [Compound 6] | 23 | 22 | −1 |  | 
COc1cc(OC)cc(C(NCC(=O)Nc2c(C(C)C)cccc2C(C)C)c2ccccc2)c1 (stereo not drawn) [Compound 25] | 10 | 7 | −3 |  | 
CC(C)c1cccc(C(C)C)c1NC(=O)NCC1(c2cccc(CN(CCO)CCO)c2)CCCC1 [Compound 23] | 4 | −80 | −84 |  | 
CCCCCCCCCCCCCC(=O)CC(=O)Nc1c(C(C)C)cccc1C(C)C [Compound 14] | −8 | −23 | −15 |  | 
CSc1ccc(CN(C(=O)CC(=O)Nc2c(C(C)C)cccc2C(C)C)C(C)C)cc1 [Compound 2] | 65 | 96 | 31 | comparable results | 
CC1=C(/C=C/C(C)=C/C=C/C(C)=C\C(=O)O)C(C)(C)CCC1 [Accutane, isotretinoin] |  |  |  |  | up to 90%
